Source: ChEMBL document CHEMBL4339234, “Synthesis and in vitro biological evaluation of new P2X7R radioligands [11C]halo-GSK1482160 analogs” (Bioorg Med Chem Lett, 2019)

Columns and labels:
P2X purinoceptor 7 [1] = biological target: T1, P2X purinoceptor 7 (Homo sapiens, UniProt Q99572); assay: Competitive displacement of [11C]GSK1482160 from human recombinant P2X7 receptor expressed in HEK293 cell membranes incubated for 30 mins by scintillation counting method based radioligand competitive binding assay
T1 sequence (Q99572 whole entry): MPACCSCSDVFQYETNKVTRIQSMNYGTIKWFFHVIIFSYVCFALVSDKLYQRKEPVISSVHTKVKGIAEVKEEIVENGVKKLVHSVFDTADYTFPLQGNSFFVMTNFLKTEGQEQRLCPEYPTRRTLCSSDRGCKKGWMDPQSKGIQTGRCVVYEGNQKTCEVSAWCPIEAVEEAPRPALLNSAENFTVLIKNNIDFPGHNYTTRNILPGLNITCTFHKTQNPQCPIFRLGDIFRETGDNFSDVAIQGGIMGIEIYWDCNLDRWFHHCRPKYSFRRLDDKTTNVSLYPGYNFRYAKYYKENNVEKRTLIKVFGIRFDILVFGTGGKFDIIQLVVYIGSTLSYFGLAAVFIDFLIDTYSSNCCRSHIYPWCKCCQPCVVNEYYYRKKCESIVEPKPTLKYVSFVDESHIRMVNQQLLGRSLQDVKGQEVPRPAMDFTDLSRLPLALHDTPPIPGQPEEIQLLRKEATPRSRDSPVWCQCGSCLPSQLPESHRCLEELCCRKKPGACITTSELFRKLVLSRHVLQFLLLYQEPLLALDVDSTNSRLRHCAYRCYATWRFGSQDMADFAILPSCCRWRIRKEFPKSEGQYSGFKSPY

P2X purinoceptor 7 [2] = biological target: T1, P2X purinoceptor 7; assay: Displacement of [11C]GSK1482160 from human recombinant P2X7 receptor expressed in HEK293 cell membranes incubated for 30 mins by scintillation counting method based radioligand competitive binding assay

Compound	Ki (P2X purinoceptor 7 [1])	IC50 (P2X purinoceptor 7 [2])
CN1C(=O)CC[C@H]1C(=O)NCc1cccc(C(F)(F)F)c1F	54.2 nM	153 nM
CN1C(=O)CC[C@H]1C(=O)NCc1cccc(C(F)(F)F)c1Br	2.5 nM	7.1 nM
CN1C(=O)CC[C@H]1C(=O)NCc1cccc(C(F)(F)F)c1I	1.9 nM	5.3 nM
CN1C(=O)CC[C@H]1C(=O)NCc1cccc(C(F)(F)F)c1Cl [GSK1482160]	3.1 nM	–
